Marks after values point to notes of the source that are not given here.
Assays:
[1] = tested on: Acyl-CoA:cholesterol acyl transferase (ACAT); experiment: Acyl-CoA:cholesterol acyl transferase (ACAT) inhibiting activity; format: biochemical, male Sprague-Dawley rats; parameters: tested at 1 µM; details: inhibition of labeled cholesterol ester formation at 10⁻⁶ M of the test compounds; small intestine mucosa microsome fraction
Protocol: An ACAT enzyme preparation was obtained from the small intestine mucosa microsome fraction from male Sprague-Dawley rats of 6 weeks of age fasted for 20 hours, as described by Heider et al. [Journal of Lipid Research, 24, 1127 (1982)].
The ACAT activity was calculated by determining the yield of a labeled cholesterol ester from [1-¹⁴C]oleoyl-CoA and endogenous cholesterol using the method of Helgerud et al. [Journal of Lipid Research, 22, 271 (1981)].
The inhibition percentages of the labeled cholesterol ester formation at 10⁻⁶ M of the test compounds are shown in Table 1 as ACAT inhibiting activity indices.

cholesterol-loaded rats = experiment: Plasma cholesterol lowering activity in cholesterol-loaded rats; format: in vivo, Male Sprague-Dawley rats; details: 1% cholesterol diet containing 0.01% test compound for 4 days; dose 8.5 mg/kg/day; control group 266 + 46; p<0.01
Protocol: Male Sprague-Dawley rats of 7 weeks of age were fed with a 1% cholesterol diet (containing 0.5% cholic acid and 5% olive oil) for 3 days, then grouped by plasma cholesterol level and further fed with the same diet containing 0.01% test compound for 4 days. Blood samples were collected at 8:30 a.m. to 10:00 a.m. while the animals were satiated, and plasma cholesterol levels were determined enzymatically. Intakes of the compound were calculated from food intake data.

In the case of `O=C(Nc1ccc(F)cc1F)N(Cc1ccccc1Cl)C1Cc2ccccc2C1` [Example 1, N-(2-chlorobenzyl)-N′-(2,4-difluorophenyl)-N-(2-indanyl)urea], the “% ACAT inhibition” value [1] is reported as 84% and the Plasma cholesterol (cholesterol-loaded rats) is reported as 128 + 47* mg/dl.
